The text below walks through data of US20080015225A1, “Dimeric Piperidine Derivatives” (JANSSEN PHARMACEUTICA N.V., priority 2004, published 2008).

In the assay the test system is chicken dorsal root ganglion (DRG) neurons. As to the kind of experiment: Neuronal viability assay (calcein-AM) in primary culture of chicken dorsal root ganglion neurons. The settings on record: Gallus gallus, DRG neuron, 48 h; survival of chick embryonic day 10 DRG neurons after two days of incubation; calcein-AM fluorescence; 0% = no neurotrophic factor, 100% = 10 ng/ml NGF; pIC50 from dose response curves; read-out: [C1] DRG assay SCORE. The class given is cell-based, chicken (White Leghorn chick embryos). An excerpt: This assay is based on a fluorimetric Calcein-AM measurement and addresses the functional response of neurons as a quantitative measure of survival.
Primary Culture of Chicken Dorsal Root Ganglion Neurons
Dorsal root ganglia were dissected from White Leghorn chick embryos at embryonic day 10 as described previously (Skaper S. D. and Varon S. (1986) Brain Research 389, 39-46). The ganglia were trypsinised and dissociated by mild trituration in a HBSS buffer supplemented with 0.6% glucose and 0.08% trypsin. To remove non-neuronal lo cells by differential attachment to culture plastic, the ganglionic cell suspension was diluted to 2.5×10^5 cells/ml and seeded on tissue culture plastic dishes at 10 ml per 100 mm dish. After 2 h preplating, unattached neurons were collected and resuspended into Basal Eagle Medium containing 10% FCS. To remove cell aggregates, the cell suspension was passed through a nylon mesh (50 μM) pore diameter. Neuron-enriched cell suspension was plated at 5×10^4 cells/ml into poly-L-ornithine (100 μg/ml) and laminine (1 μg/ml) coated multiwell 96 plates. Compounds were dissolved in dimethyl sulfoxide and kept as a stock at −20° C. NGF and compounds were diluted in the culture medium and added to the cells immediately after plating. The final concentration of dimethyl sulfoxide in the test medium was 0.1%. After two days of incubation, neuronal viability was assessed with calcein-AM.
Neuronal Viability Assay Using Calcein-AM
Neuronal viability assay using calcein AM was performed as previously described (Bozyczko-Coyne D., McKenna B. W., Connors T. J., and Neff N. T. (1993) Journal of Neuroscience Methods 50, 205-216). For the assay, calcein-AM was diluted in PBS to the final concentration (1 μM). For each experiment an aliquot of calcein-AM (1 mg/ml in DMSO stored at −20° C.) was thawed immediately before use. The medium was removed from the wells and replaced with the calcein-AM solution. Assay plates were incubated for 1 h at 37° C. in a humidified CO2 incubator. Following the incubation, reading was done in a Cytofluor II at an excitation wavelength of 485 nm and an emission wavelength of 530 nm. Each plate had control wells with no neurotrophic factor added (0% survival) and wells with 10 ng/ml NGF (100% survival).
The drugs to be tested were taken from a stock solution and tested at a final concentration ranging from […] to 3.10^−9M. From the thus obtained dose response curves, the pIC50 value was calculated and scored as follows; Score 1=pIC50 value <6, Score 2=pIC50 value in the range of 6 to 8, Score 3 =pIC50 value>8. (in this table NT stands for Not Tested).

The structures appear in SMILES notation.

Turning to `O=C(NCCCCCCNC(=O)N1CCC(O)(c2ccc(Cl)cc2)CC1)N1CCC(O)(c2ccc(Cl)cc2)CC1` [Compound 28], the IC50 was 0.01 to 1 µM.
Regarding `O=C(CCCCCCC(=O)N1CCC(Oc2nc3ccccc3s2)CC1)N1CCC(Oc2nc3ccccc3s2)CC1` [Compound 11], the IC50 was 0.01 to 1 µM.
With `O=S(=O)(c1ccc(Oc2ccc(S(=O)(=O)N3CCC(O)(c4ccc(Cl)cc4)CC3)cc2)cc1)N1CCC(O)(c2ccc(Cl)cc2)CC1` [Compound 16] the figure was 0.01 to 1 µM; with `O=C(Nc1ccc(Cc2ccc(NC(=O)N3CCC(O)(c4ccc(F)cc4)CC3)cc2)cc1)N1CCC(O)(c2ccc(F)cc2)CC1` [Compound 32], over 1 µM; with `O=S(=O)(c1ccc(Oc2ccc(S(=O)(=O)N3CCC(O)(c4ccc(Br)cc4)CC3)cc2)cc1)N1CCC(O)(c2ccc(Br)cc2)CC1` [Compound 6], over 1 µM.
To `O=C(CCCCCCCC(=O)N1CCC(c2noc3cc(F)ccc23)CC1)N1CCC(c2noc3cc(F)ccc23)CC1` [Compound 42] belongs 0.01 to 1 µM; to `CC(C)(C)Cc1nc(C2CCN(C(=O)CCCCCC(=O)N3CCC(c4noc(CC(C)(C)C)n4)CC3)CC2)no1` [Compound 4], over 1 µM.
On to `O=C(c1ccc(Cl)cc1)C1CCN(C(=O)CCCCCCCC(=O)N2CCC(C(=O)c3ccc(Cl)cc3)CC2)CC1` [Compound 23], for which the IC50 is 0.01 to 1 µM.
For `O=C(c1ccc(Cl)cc1)C1CCN(C(=O)CCCCC(=O)N2CCC(C(=O)c3ccc(Cl)cc3)CC2)CC1` [Compound 24], the IC50 is 0.01 to 1 µM.
Consider `O=C(c1ccc(F)cc1)C1CCN(CC#CCN2CCC(C(=O)c3ccc(F)cc3)CC2)CC1` [Compound 1], for which the IC50 was under 0.01 µM.
With `O=S(=O)(c1ccc(Oc2ccc(S(=O)(=O)N3CCC(O)(c4ccc(Cl)c(Cl)c4)CC3)cc2)cc1)N1CCC(O)(c2ccc(Cl)c(Cl)c2)CC1` [Compound 14], the IC50 was 0.01 to 1 µM.
On to `O=C(CCCCCCCC(=O)N1CCC(O)(c2ccc(Cl)c(C(F)(F)F)c2)CC1)N1CCC(O)(c2ccc(Cl)c(C(F)(F)F)c2)CC1` [Compound 20], for which the IC50 was 0.01 to 1 µM.
To `O=S(=O)(c1ccc(Cc2ccc(S(=O)(=O)N3CCC(O)(c4ccc(Cl)c(Cl)c4)CC3)cc2)cc1)N1CCC(O)(c2ccc(Cl)c(Cl)c2)CC1` [Compound 13] belongs over 1 µM; to `O=S(=O)(c1ccc(Cc2ccc(S(=O)(=O)N3CCC(O)(c4cccnc4)CC3)cc2)cc1)N1CCC(O)(c2cccnc2)CC1` [Compound 5], 0.01 to 1 µM.
With `O=C(NCCCCCCNC(=O)N1CCC(O)(c2cccc(C(F)(F)F)c2)C(O)C1)N1CCC(O)(c2cccc(C(F)(F)F)c2)C(O)C1` (stereo not drawn) [Compound 3] the figure was 0.01 to 1 µM.
To `O=C(c1cccc(C(=O)N2CCC(O)(c3cccc(C(F)(F)F)c3)CC2)c1)N1CCC(O)(c2cccc(C(F)(F)F)c2)CC1` [Compound 44] belongs over 1 µM.
Turning to `O=C(NCCCCCCNC(=O)N1CCC(c2noc3cc(F)ccc23)CC1)N1CCC(c2noc3cc(F)ccc23)CC1` [Compound 30], the IC50 is 0.01 to 1 µM.
To `COc1cc2nc(NCC3CCN(C(=O)NCCCCCCNC(=O)N4CCC(CNc5nc6cc(OC)c(OC)cc6s5)CC4)CC3)sc2cc1OC` [Compound 27] belongs 0.01 to 1 µM; to `O=C(NCCCCCCNC(=O)N1CCC(Cc2nc3ccccc3s2)CC1)N1CCC(Cc2nc3ccccc3s2)CC1` [Compound 36], 0.01 to 1 µM.
To `O=C(c1ccc(F)cc1)C1CCN(C(=O)CCCCCCCC(=O)N2CCC(C(=O)c3ccc(F)cc3)CC2)CC1` [Compound 45] belongs over 1 µM; to `O=C(Nc1ccc(NC(=O)N2CCC(O)(c3ccc(Cl)c(C(F)(F)F)c3)CC2)cc1)N1CCC(O)(c2ccc(Cl)c(C(F)(F)F)c2)CC1` [Compound 34], 0.01 to 1 µM; to `c1ccc2c(c1)CCN2C1CCN(CCCCCCCCCCCCN2CCC(N3CCc4ccccc43)CC2)CC1` [Compound 2], 0.01 to 1 µM.
Regarding `O=C(Nc1ccc(NC(=O)N2CCC(O)(c3cccc(C(F)(F)F)c3)CC2)cc1)N1CCC(O)(c2cccc(C(F)(F)F)c2)CC1` [Compound 33], the IC50 was 0.01 to 1 µM.
For the molecule `OC(CN1CCC(O)(c2cccc(C(F)(F)F)c2)C(O)C1)CN1CCC(O)(c2cccc(C(F)(F)F)c2)C(O)C1` (stereo not drawn) [Compound 18], the IC50 is 0.01 to 1 µM.
As for `O=C(CCCCC(=O)N1CCC(O)(c2ccc(Cl)c(C(F)(F)F)c2)CC1)N1CCC(O)(c2ccc(Cl)c(C(F)(F)F)c2)CC1` [Compound 25], the IC50 is over 1 µM.
Take `O=C(c1cccc(C(F)(F)F)c1)C1CCN(C(=O)NCCCCNC(=O)N2CCC(C(=O)c3cccc(C(F)(F)F)c3)CC2)CC1` [Compound 38]: the IC50 was 0.01 to 1 µM.
For the molecule `O=C(CCCCCCCC(=O)N1CCC(O)(c2cccc(Cl)c2)CC1)N1CCC(O)(c2cccc(Cl)c2)CC1` [Compound 7], the IC50 is over 1 µM.
Take `OC1(c2ccc(Cl)cc2)CCN(CC#CCN2CCC(O)(c3ccc(Cl)cc3)CC2)CC1` [Compound 26]: the IC50 is under 0.01 µM.
To `O=S(=O)(c1ccc(Oc2ccc(S(=O)(=O)N3CCC(O)(c4cccc(Cl)c4)CC3)cc2)cc1)N1CCC(O)(c2cccc(Cl)c2)CC1` [Compound 15] belongs 0.01 to 1 µM; to `OC1(c2ccc(Cl)c(Cl)c2)CCN(CC#CCN2CCC(O)(c3ccc(Cl)c(Cl)c3)CC2)CC1` [Compound 47], 0.01 to 1 µM.
As for `COc1ccc(-c2noc(C3CCN(C(=O)c4ccc(-c5ccc(C(=O)N6CCC(c7nc(-c8ccc(OC)c(OC9CCCC9)c8)no7)CC6)cc5)cc4)CC3)n2)cc1OC1CCCC1` [Compound 41], the IC50 was 0.01 to 1 µM.
With `c1ccc2c(CC3CCN(CCCN4CCC(Cc5c[nH]c6ccccc56)CC4)CC3)c[nH]c2c1` [Compound 39] the figure was 0.01 to 1 µM.
In the case of `O=C(NCCCCCCNC(=O)N1CCC(O)(c2ccc(Cl)c(C(F)(F)F)c2)CC1)N1CCC(O)(c2ccc(Cl)c(C(F)(F)F)c2)CC1` [Compound 48], the IC50 was 0.01 to 1 µM.
To `OC(CN1CCC(O)(c2ccc(Cl)cc2)CC1)CN1CCC(O)(c2ccc(Cl)cc2)CC1` [Compound 19] belongs 0.01 to 1 µM; to `O=C(c1cccc(C(=O)N2CCC(O)(c3ccc(Cl)c(Cl)c3)CC2)c1)N1CCC(O)(c2ccc(Cl)c(Cl)c2)CC1` [Compound 43], over 1 µM.
For `O=C(CCCCCCC(=O)N1CCC(OCc2cccc(C(F)(F)F)c2)CC1)N1CCC(OCc2cccc(C(F)(F)F)c2)CC1` [Compound 12], the IC50 was 0.01 to 1 µM.
Consider `C(#CCN1CCC(c2c[nH]c3ccccc23)CC1)CN1CCC(c2c[nH]c3ccccc23)CC1` [Compound 17], for which the IC50 is 0.01 to 1 µM.
As for `O=C(c1cccc(C(=O)N2CCC(O)(c3ccc(Cl)c(C(F)(F)F)c3)CC2)c1)N1CCC(O)(c2ccc(Cl)c(C(F)(F)F)c2)CC1` [Compound 21], the IC50 was 0.01 to 1 µM.
Turning to `O=C(CCCCC(=O)N1CCC(OCc2cccc(C(F)(F)F)c2)CC1)N1CCC(OCc2cccc(C(F)(F)F)c2)CC1` [Compound 10], the IC50 is 0.01 to 1 µM.
Take `O=C(NCCCCCCNC(=O)N1CCC(Cc2c[nH]c3ccccc23)CC1)N1CCC(Cc2c[nH]c3ccccc23)CC1` [Compound 29]: the IC50 was 0.01 to 1 µM.
To `O=C(CCCCCCCC(=O)N1CCC(O)(c2ccc(Cl)c(Cl)c2)CC1)N1CCC(O)(c2ccc(Cl)c(Cl)c2)CC1` [Compound 22] belongs over 1 µM; to `Fc1ccc2c(C3CCN(CC#CCN4CCC(c5noc6cc(F)ccc56)CC4)CC3)noc2c1` [Compound 40], 0.01 to 1 µM.
